Data set [1] addresses T1, human type 1 glycine transporter (GlyT1) (Homo sapiens, UniProt P48067).
T1 construct: Used in the experiment were T98G cells (glioma cells) developing a human type 1 glycine transporter of (GlyT1); endogenous in cells; host or cells: T98G human glioma cells
T1 sequence (P48067 1-706): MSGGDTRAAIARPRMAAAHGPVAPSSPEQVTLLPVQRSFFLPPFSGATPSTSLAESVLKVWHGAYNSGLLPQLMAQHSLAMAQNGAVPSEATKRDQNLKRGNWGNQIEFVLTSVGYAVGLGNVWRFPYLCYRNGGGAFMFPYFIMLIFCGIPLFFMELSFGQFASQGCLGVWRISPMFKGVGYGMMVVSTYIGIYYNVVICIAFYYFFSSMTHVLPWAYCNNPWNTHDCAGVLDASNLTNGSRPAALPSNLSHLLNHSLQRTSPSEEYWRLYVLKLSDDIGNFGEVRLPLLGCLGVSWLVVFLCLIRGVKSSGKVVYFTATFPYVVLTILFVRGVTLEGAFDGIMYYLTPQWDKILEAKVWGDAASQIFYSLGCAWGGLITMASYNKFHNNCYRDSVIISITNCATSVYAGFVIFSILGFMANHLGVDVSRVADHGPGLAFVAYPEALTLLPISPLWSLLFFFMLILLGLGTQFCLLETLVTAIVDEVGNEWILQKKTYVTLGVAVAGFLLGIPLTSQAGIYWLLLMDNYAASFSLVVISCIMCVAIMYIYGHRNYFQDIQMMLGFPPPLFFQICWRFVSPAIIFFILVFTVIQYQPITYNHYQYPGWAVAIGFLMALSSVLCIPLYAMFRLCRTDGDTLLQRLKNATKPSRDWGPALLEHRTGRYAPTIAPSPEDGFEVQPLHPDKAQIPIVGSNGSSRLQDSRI
As to the kind of experiment: Glycine uptake inhibition experiment ([3H]glycine uptake in T98G cells). It counts as cell-based. Particulars: T98G glioma cells; [3H]glycine 250 nM; 10-min pretreatment; 15 min at room temperature; read-out: glycine uptake inhibiting activity (IC50). The method, then: A glycine uptake inhibition experiment was conducted in accordance with the method described in Neuron, 8, 927-935, 1992. Used in the experiment were T98G cells (glioma cells) developing a human type 1 glycine transporter of (GlyT1). The T98G cells were seeded in a 96-well plate at a density of 2.0×10^4 cells per well and cultured overnight in a CO2 incubator. The test substance was first dissolved in a 100% DMSO solution and then dissolved in a 10 mM HEPES buffer solution (pH 7.4) supplemented with 150 mM sodium chloride, 1 mM calcium chloride, 5 mM potassium chloride, 1 mM magnesium chloride, 10 mM glucose, and 0.2% bovine serum albumin. After removing the cell culture medium, the test substance was subjected to a 10-min pretreatment. Thereafter, the test substance and [^3H] glycine (final concentration: 250 nM) were added to the cells and reaction was performed at room temperature for 15 minutes. After the end of the reaction, the extracellular fluid was aspirated with a manifold to remove the excess marker glycine present outside of the cells; thereafter, the cells were lysed with an aqueous solution of 0.5 M sodium hydroxide. The glycine content in the cells was determined by measuring the radioactivity in the cell lysate with a liquid scintillation counter. With the amount of glycine uptake in the presence of 10 μM ALX5407 being referred to as the nonspecific uptake, the amount of specific uptake was calculated by subtracting the amount of nonspecific uptake from the total amount of uptake in the absence of 10 μM ALX5407. In addition, glycine uptake inhibiting activity (IC50) was calculated from an inhibition curve for the concentration of the test substance ranging from 10^−9 to 10^−5 M.
It should be noted that ALX5407 is a HCl salt of N-[(3R)-3-([1,1′-biphenyl]-4-yloxy)-3-(4-fluorophenyl)propyl]-N-methylglycine.
Incidentally, Compound 56 which is recited as 2HCl salt in the above Table 1-6 was subjected to measurement as its free form in the Glycine Uptake Inhibition Experiment.

Data set [2] addresses T2, P-glycoprotein (P-gp), Human MDR1 (Homo sapiens, UniProt P08183).
T2 construct: expressed in transfected cells; host or cells: LLC-GAS-COL 300 cells (derived from pig kidney LLC-PK1)
As to the kind of experiment: Test for recognizability of P-gp substrate (LLC-GAS-COL 300 cells, Transwell). It counts as in vitro ADME. To be noted: 10 μM; LLC-GAS-COL 300 cells (Human MDR1 in LLC-PK1); criteria of Nature Reviews Drug Discovery (2010) 9, 215-236. The text has this: In order that drugs acting on the central nervous system will develop their efficacy, their passage from the blood to the brain is generally important. While various efflux transporters are present at the blood-brain barrier to control this passage of drugs, P-glylcoprotein (P-gp) is a typical example and inhibits the passage to the brain of any drugs that serve as the substrate for P-gp. Therefore, in the development of pharmaceuticals, nonrecognizability of a candidate drug as the substrate for P-gp is the key to its passage to the brain.
A test for recognizability of P-gp substrate was performed in accordance with a modified version of the methods described in J Pharmacol. Exp. Ther. (1992) Vol. 263, No. 2, 840-845 and J Biol. Chem. (1992) Vol. 267, No. 34, 24248-24252. To be more specific, LLC-GAS-COL 300 cells (Human MDR1 expressing system derived from pig kidney derived, cultured renal epithelial cell line LLC-PK1) were cultured for 4 days on a Transwell and replaced by a Hank's balanced salt solution (HBSS) in each well just before the test. A solution of an assay compound (a DMSO solution of the compound as diluted with HBSS and adjusted to a final concentration of 10 μM) was added to the donor side of the LLC-GAS-COL 300 cells and a prescribed amount of HBSS was collected from the acceptor side at given time intervals and the concentration of the assay compound in the collected sample was measured by LC-MS/MS.
From the cumulative amount of the compound's permeation into the acceptor, the membrane permeability coefficient (×10^−6 cm/sec) was calculated for each of apical→basal mode and basal→apical mode and the recognizability of P-gp substrate was assessed in terms of the ratio between the two modes (efflux ratio).

Several values for one entry are separate records, joined by “and”; a condition that tells them apart may be missing. Identical values can stand only once.

T2 sequence (P08183 whole entry): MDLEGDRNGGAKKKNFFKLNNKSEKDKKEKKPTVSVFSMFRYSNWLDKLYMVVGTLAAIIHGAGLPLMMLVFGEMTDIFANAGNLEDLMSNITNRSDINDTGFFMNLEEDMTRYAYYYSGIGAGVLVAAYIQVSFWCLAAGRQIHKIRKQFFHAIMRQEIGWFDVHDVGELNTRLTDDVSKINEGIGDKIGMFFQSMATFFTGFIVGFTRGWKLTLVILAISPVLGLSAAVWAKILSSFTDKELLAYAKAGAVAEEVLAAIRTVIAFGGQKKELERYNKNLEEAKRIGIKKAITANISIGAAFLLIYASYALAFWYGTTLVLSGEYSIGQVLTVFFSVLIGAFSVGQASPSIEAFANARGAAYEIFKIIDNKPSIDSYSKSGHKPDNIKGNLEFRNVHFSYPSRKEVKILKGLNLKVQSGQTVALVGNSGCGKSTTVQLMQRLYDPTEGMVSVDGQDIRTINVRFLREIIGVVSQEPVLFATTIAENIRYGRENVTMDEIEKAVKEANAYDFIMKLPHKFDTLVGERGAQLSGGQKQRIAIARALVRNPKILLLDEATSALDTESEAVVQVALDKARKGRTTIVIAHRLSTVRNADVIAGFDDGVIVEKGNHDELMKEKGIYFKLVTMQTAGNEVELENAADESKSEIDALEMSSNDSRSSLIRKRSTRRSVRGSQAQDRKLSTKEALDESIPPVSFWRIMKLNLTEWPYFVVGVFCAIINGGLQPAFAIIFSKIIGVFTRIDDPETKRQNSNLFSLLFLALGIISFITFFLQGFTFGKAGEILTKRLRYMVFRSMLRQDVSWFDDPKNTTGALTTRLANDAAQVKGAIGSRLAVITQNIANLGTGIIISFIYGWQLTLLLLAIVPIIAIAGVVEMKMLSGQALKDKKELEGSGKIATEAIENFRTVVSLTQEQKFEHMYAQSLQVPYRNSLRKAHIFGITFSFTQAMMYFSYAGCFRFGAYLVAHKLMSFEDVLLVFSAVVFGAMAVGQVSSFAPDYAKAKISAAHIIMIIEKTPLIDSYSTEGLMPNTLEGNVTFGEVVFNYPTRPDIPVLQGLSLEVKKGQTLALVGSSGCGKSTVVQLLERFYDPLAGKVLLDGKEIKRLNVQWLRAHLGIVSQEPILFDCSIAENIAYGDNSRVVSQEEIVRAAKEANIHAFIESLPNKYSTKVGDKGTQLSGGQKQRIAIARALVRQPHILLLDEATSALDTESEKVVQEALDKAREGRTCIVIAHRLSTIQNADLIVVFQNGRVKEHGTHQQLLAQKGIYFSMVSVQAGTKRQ

In the case of `Cn1cnc(C(=O)N(Cc2ccnc(-c3ccc(OC(F)(F)F)cc3)c2)C2CCC2)c1` [Compound 107], the IC50 in data set [1] is 3.5 nM.

Regarding `CC(C)N(Cc1ccc(F)c(-c2ccccn2)c1)C(=O)c1cn(C)cn1` [Compound 14], the IC50 in data set [1] came to 18 nM. Besides, the “recognizability as P-gp substrate (from efflux ratio basal→apical / apical→basal)” value in data set [2] is listed as “not recognizable as the substrate for P-gp”.

For the compound `Cn1cnc(C(=O)N(CCC(F)(F)F)Cc2ccnc(-c3ccc(F)cc3)c2)c1` [Compound 52], in data set [1], the IC50 was at least 1000 nM. Consider `CC(C)N(Cc1noc(-c2ccc(Cl)cc2)n1)C(=O)c1cn(C)cn1` [Compound 138], for which, in data set [1], the IC50 was at least 1000 nM. As for `CC(C)CN(Cc1ccnc(-c2ccc(F)cc2)c1)C(=O)c1cn(C)cn1` [Compound 54], the “recognizability as P-gp substrate (from efflux ratio basal→apical / apical→basal)” value in data set [2] was “not recognizable as the substrate for P-gp”. Regarding `CC(C)N(Cc1ccc(F)c(-n2cccn2)c1)C(=O)c1cn(C)cn1` [Compound 73], the “recognizability as P-gp substrate (from efflux ratio basal→apical / apical→basal)” value in data set [2] was “not recognizable as the substrate for P-gp”. `CCCN(Cc1cc(-c2ccccc2)ccn1)C(=O)c1cn(C)cn1` [Compound 5]: the IC50 in data set [1] is ≥ 1000 nM and 1400 nM.

As to `Cc1cnn(-c2cc(CN(C(=O)c3cn(C)cn3)C(C)C)ccc2F)c1` [Compound 121], the IC50 in data set [1] is 160 nM. On the same count and under the same terms, with `Cn1cnc(C(=O)N(Cc2nc(-c3ccc(OC(F)(F)F)cc3)no2)C2CCC2)c1` [Compound 160] the figure was 330 nM.

`CN(C)c1ccc(-c2cc(CN(C(=O)c3cn(C)cn3)C3CCC3)ccc2F)cn1` [Compound 158]: the “recognizability as P-gp substrate (from efflux ratio basal→apical / apical→basal)” value in data set [2] is reported as “not recognizable as the substrate for P-gp”.

For `CC(C)N(Cc1ccc(F)c(-c2ccc(F)nc2)c1)C(=O)c1cn(C)cn1` [Compound 9], the “recognizability as P-gp substrate (from efflux ratio basal→apical / apical→basal)” value in data set [2] is recorded as “not recognizable as the substrate for P-gp”.

Turning to `Cn1cnc(C(=O)N(Cc2ccc(F)c(-c3cccnc3C(F)(F)F)c2)C2CCOCC2)c1` [Compound 168], in data set [1], the IC50 is at least 1000 nM. Consider `CC(C)N(Cc1ccc(F)c(-c2ncc[nH]2)c1)C(=O)c1cn(C)cn1` [Compound 29], for which the IC50 in data set [1] was at least 1000 nM. For `CC(C)N(Cc1ccnc(-c2ccc(Cl)cc2)c1)C(=O)c1cn(C)cn1` [Compound 69], the “recognizability as P-gp substrate (from efflux ratio basal→apical / apical→basal)” value in data set [2] is on record as “not recognizable as the substrate for P-gp”.

As for `CC(C)N(Cc1ccc(F)c(-c2ccc(F)nc2)c1)C(=O)c1c[nH]cn1` [Compound 141], the IC50 in data set [1] is at least 1000 nM.

As to `CC(C)N(Cc1ccc(F)c(-c2cncc(F)c2)c1)C(=O)c1cn(C)cn1` [Compound 15], the “recognizability as P-gp substrate (from efflux ratio basal→apical / apical→basal)” value in data set [2] is given as “not recognizable as the substrate for P-gp”. With `CC(C)N(Cc1ccnc(-c2ccccc2OC(F)(F)F)c1)C(=O)c1cn(C)cn1` [Compound 111], the IC50 in data set [1] is at least 1000 nM. With `CC(C)N(Cc1ccc(F)c(-c2cccc3ncccc23)c1)C(=O)c1cn(C)cn1` [Compound 24], the half-inhibitory concentration (IC50) in data set [1] was at least 1000 nM. Consider `CC(C)N(Cc1ccnc(-c2cc(F)ccc2C(F)(F)F)c1)C(=O)c1cn(C)cn1` [Compound 137], for which the IC50 in data set [1] was at least 1000 nM. Turning to `Cc1cn(-c2cc(CN(C(=O)c3cn(C)cn3)C(C)C)ccc2F)cn1` [Compound 143], the IC50 in data set [1] was determined as 64 nM. For the compound `CC(C)N(Cc1ccnc(-c2cc(F)cc(F)c2)c1)C(=O)c1cn(C)cn1` [Compound 62], in data set [2], the “recognizability as P-gp substrate (from efflux ratio basal→apical / apical→basal)” value is “not recognizable as the substrate for P-gp”. Turning to `Cn1cnc(C(=O)N(Cc2ccc(F)c(-c3ccc(N4CCCC4)nc3)c2)C2CCC2)c1` [Compound 161], in data set [1], the IC50 turned out to be 12 nM. For the compound `CC(c1ccnc(-c2ccc(F)cc2)c1)N(C(=O)c1cn(C)cn1)C1CCC1` (stereo not shown) [Compound 153], the IC50 in data set [1] came to 30 nM. `CC(C)N(Cc1ccc(F)c(-n2ccnc2)c1)C(=O)c1cn(C)cn1` [Compound 74]: in data set [1], the IC50 is 15 nM. On to `CC(C)N(Cc1ccnc(-c2ccccc2)c1)C(=O)c1cn(C)cn1` [Compound 36], for which the “recognizability as P-gp substrate (from efflux ratio basal→apical / apical→basal)” value in data set [2] is listed as “not recognizable as the substrate for P-gp”. With `CC(C)N(Cc1ccnc(-c2ccc(OC(F)F)cc2)c1)C(=O)c1cn(C)cn1` [Compound 124], in data set [2], the “recognizability as P-gp substrate (from efflux ratio basal→apical / apical→basal)” value is reported as “not recognizable as the substrate for P-gp”. Regarding `CCn1cnc(C(=O)N(Cc2ccnc(-c3ccc(F)cc3)c2)C(C)C)c1` [Compound 56], in data set [2], the “recognizability as P-gp substrate (from efflux ratio basal→apical / apical→basal)” value is given as “not recognizable as the substrate for P-gp”.

For `CC(C)N(Cc1ccnc(-c2ccc(F)cc2)c1)C(=O)c1c[nH]cn1` [Compound 42], the IC50 in data set [1] is at least 1000 nM.

For the compound `Cc1cn(-c2cc(CN(C(=O)c3cn(C)cn3)C(C)C)ccc2F)c(C)n1` [Compound 132], in data set [1], the IC50 is at least 1000 nM. With `Cn1cnc(C(=O)N(Cc2ccc(F)c(-c3ccc(F)nc3)c2)C2CCC2)c1` [Compound 120], in data set [1], the IC50 is 8 nM.

On to `Cn1cnc(C(=O)N(Cc2ccc(F)c(-c3cc(C(F)(F)F)ncn3)c2)C2CCC2)c1` [Compound 208], for which the IC50 in data set [1] is 14 nM. For `CC(C)N(Cc1ccnc(-c2ccc(OC(F)(F)F)cc2)c1)C(=O)c1c[nH]cn1` [Compound 146], in data set [1], the IC50 was at least 1000 nM.

With `COCCN(Cc1ccnc(-c2cccc(OC(F)(F)F)c2)c1)C(=O)c1cn(C)cn1` [Compound 198], in data set [2], the “recognizability as P-gp substrate (from efflux ratio basal→apical / apical→basal)” value is “not recognizable as the substrate for P-gp”. `Cc1n[nH]c(C)c1-c1cc(CN(C(=O)c2cn(C)cn2)C(C)C)ccc1F` [Compound 25]: in data set [1], the IC50 is at least 1000 nM. Still for that read-out and setting: to `Cc1cccc(C)c1-c1cc(CN(C(=O)c2cn(C)cn2)C(C)C)ccn1` [Compound 63] belongs at least 1000 nM; to `Cn1cnc(C(=O)N(Cc2ccnc(-c3ccc(F)c(OC(F)F)c3)c2)C2CCC2)c1` [Compound 213], 3.7 nM. With `Cn1cnc(C(=O)N(Cc2csc(-c3ccc(OC(F)(F)F)cc3)n2)C2CCC2)c1` [Compound 155], the IC50 in data set [1] stood at 5.8 nM. For `CC(C)N(Cc1ccnc(-c2ccc(F)cc2)c1)C(=O)c1cn(C)cn1` [Compound 31], the “recognizability as P-gp substrate (from efflux ratio basal→apical / apical→basal)” value in data set [2] is given as “not recognizable as the substrate for P-gp”.

Regarding `Cn1cnc(C(=O)N(Cc2ccnc(-c3cc(F)c(F)cc3F)c2)C2CCC2)c1` [Compound 191], in data set [1], the IC50 came to 16 nM.

Usually IC50 stands for the concentration needed to halve the response being measured.

The record behind these values is US8729271B2, “Glycine transporter inhibiting substances” (Taisho Pharmaceutical Co., Ltd, priority 2010, dated 2014).
